Data published in patent US11535597B2, “Photoreactive ligands and uses thereof” (The Scripps Research Institute, priority 2017, dated 2022).

Target: PTGR2 (Homo sapiens, UniProt Q8N8N7)
Test: MS-based (SILAC) competition of FFF probe 8 labeling of endogenous PTGR2 in HEK293T cells
Type: binding
Protocol: For gel-based experiments, cells were grown in 6-well plates to ˜90% confluence at the time of treatment. Cells were carefully washed with Dulbecco's phosphate buffered saline (DPBS) and replenished with fresh serum-free media containing indicated FFF probe, and, if applicable, competitors or DMSO vehicle (1 mL). Following incubation at 37° C. for 30 min, cells were directly exposed to 365 nm light for 10 min. For no UV experiments, cells were incubated at 4° C. for 10 min under ambient light. For MS-based experiments, cell labeling was performed in a similar manner as described above. Modifications to this protocol included using isotopically ‘light’ and ‘heavy’ SILAC cells that were grown to near complete confluence prior to treatment in 10 cm plates. In probe-versus-control probe and probe-versus-probe experiments, isotopically light cells were treated with indicated fragment probe, while the heavy cells were treated with control probe (1), or additional FFF probe to be compared, at indicated concentrations. […]
Cells pellets were lysed in cold DPBS (100-500 µL) using a Branson Sonifier probe sonicator (10 pulses, 30% duty cycle, output setting=4). […] Protein concentration was determined using the DC Protein Assay (Bio-Rad) and absorbance read using a Tecan, Infinite F500 plate reader following manufacturer's instructions. […]

PTGR2, sequence (Q8N8N7 whole entry): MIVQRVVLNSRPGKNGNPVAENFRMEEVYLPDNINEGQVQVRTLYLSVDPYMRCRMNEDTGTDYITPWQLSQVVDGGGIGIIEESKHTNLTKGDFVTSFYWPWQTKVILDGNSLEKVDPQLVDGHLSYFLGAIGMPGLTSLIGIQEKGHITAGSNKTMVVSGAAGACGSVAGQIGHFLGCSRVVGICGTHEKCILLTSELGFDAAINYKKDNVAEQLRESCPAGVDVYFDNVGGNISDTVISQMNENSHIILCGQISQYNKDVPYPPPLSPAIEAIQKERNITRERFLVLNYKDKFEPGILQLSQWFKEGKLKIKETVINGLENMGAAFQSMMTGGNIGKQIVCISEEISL

## COc1ccccc1N1CCN(C(=O)Cc2ccccc2)CC1 [Compound 22, 1-(4-(2-Methoxyphenyl)piperazin-1-yl)-2-phenylethan-1-one]
500 nM
  inhibition at 0.5 µM: ~80%
5 μM
  inhibition of FFF 8 labeling of endogenous PTGR2: complete inhibition
